Read-outs that look alike come from different tables or passages of the source. Marks after values point to notes of the source that are not given here.
How the values were obtained:
[1] = test system: Staphylococcus aureus (Smith Strain ATCC 13709); experiment: Staphylococcus aureus mouse protection assay; assay type: in vivo, mice; details: Staph Conc. 10^6, 10% Mucin, the 13th table
Protocol: Two of the novel aminoglycoside compounds of the invention were examined for their anitbacterial activity against staphylococcus aureus. Mice were fed with autoclaved commercial food pellets and sterile water ad libitum. Animals were inoculated intraperitoneally with 0.5 mL/mouse of the indicated concentration of S. aureus (ATCC 13709) containing 10% mucin. There were 10 mice in each treatment group and compounds were administered subcutaneously one and 3 hour after infection. Compounds 15a (R4═R5═CH3) and 15j (R4═H, R5═(CH2)2C6H5)) were used at 75 mg/kg, 37.5 mg/kg, 18.8 mg/kg, 9.4 mg/kg, 4.7 mg/kg, 2.3 mg/kg, 1.17 mg/kg and 0.5 mg/kg. Amakacin, paromomycin and neomycin were used as the positive controls at concentrations of 2 mg/kg, 1 mg/kg and 0.5 mg/kg.
Test compound was administered as an aqueous buffer solution (phosphate buffered saline (PBS), pH=7.4).

[2] = test system: S. Aureus; experiment: MIC, S. Aureus; assay type: cell-based
Protocol: (§1) The MIC assays are carried out in 150 μL volume in duplicate in 96-well clear flat-bottom plates. The bacterial suspension from an overnight culture growth in appropriate medium is added to a solution of test compound in 4% DMSO in water. Final bacterial inoculum is approximately 10^5-10^6 CFU/well. […] Both ampicillin and tetracycline are used as antibiotic-positive controls in each screening assay for S. pyogenes, E. coli imp-, E. coli, S. aureus, E. faecalis, K. pneumoniae and P. vulgaris. Ciprofloxacin is used as an antibiotic positive control in each screening assay for P. aeruginosa.

[3] = biological target: 18S ribosomal subunit RNA target; experiment: Mass spectrometry based binding assay (FTICR), 18S
Protocol: (§2) In a typical experiment, 10 μL of an aqueous solution containing 100 mM ammonium acetate buffer, 2.5 or 5 μM of each RNA, and 33% isopropyl alcohol (to aid ion desolvation) was prepared with different concentrations of each ligand or ligand mixture Samples were introduced into the electrospray ionization source (negative ionization mode) at 1 μL/min and ions were stored for 1 sec in an RF-only hexapole following desolvation. The abundances were integrated from the respective ions for free RNA and the ligand-RNA complex. The primary (1:1 RNA:ligand) and secondary (1:2 complex, if observed). […] The peak ratios were measured at each concentration, then a plot of complex/free RNA versus concentration of ligand added was fitted to a second (or higher) order binding polynomial to determine the KD.

[4] = test system: E. Coli; experiment: MIC, E. Coli; assay type: cell-based
Protocol: as §1

[5] = biological target: 16S ribosomal subunit RNA target; experiment: Mass spectrometry based binding assay (FTICR), 16S
Protocol: as §2, with “[…],” for “2.5 or 5 μM of each RNA,”

[6] = test system: E. coli S30 bacterial extract (pBestLuc firefly luciferase reporter); experiment: Coupled bacterial transcription/translation assay; assay type: biochemical; details: read-out: Trans/Trans IC50
Protocol: The DNA template, pBestLuc™ (Promega), is a plasmid containing a reporter gene for firefly luciferase fused to a strong tac promoter and ribosome binding site. Messenger RNA from 1 μg pBestLuc is transcribed and translated in E. coli S30 bacterial extract in the presence or absence of test compound. Compounds are tested in a black 96 well microtiter plate with an assay volume of 35 μL. […] The transcription/translation reaction is incubated for 35 minutes at 37° C. followed by detection of functional luciferase with the addition of 30 μL LucLite™ (Packard). Light output is quantitated on a Packard TopCount.

[7] = FTICR mass spectrometry, run at 100 nM RNA, Example 105
[8] = marked with an asterisk: run at 500 nM RNA, Example 105

Compound: NCC[C@H](O)C(=O)N[C@@H]1C[C@H](N)[C@@H](O[C@H]2O[C@H](CN)[C@@H](O)[C@H](O)[C@H]2O)[C@H](O)[C@H]1O[C@H]1O[C@H](CO)[C@@H](O)[C@H](N)[C@H]1O [Amikacin, reference compound]
- # Dead mice/Total mice in group ([1]; 0.5 mg/kg subcutaneously): 8/10
- # Dead mice/Total mice in group ([1]; 1 mg/kg subcutaneously): 10/10
- # Dead mice/Total mice in group ([1]; 2 mg/kg subcutaneously): 8/10

Compound: NCC1OC(OC2C(CO)OC(OC3C(O)C(N)CC(N)C3OC3OC(CO)C(O)C(O)C3N)C2OCCNc2cccnc2)C(N)C(O)C1O (centres unmarked) [Compound 9a]
- MIC S. Aureus ([2]; Example 105): 0.6-1^ uM
- Kd ([3]; FTICR mass spectrometry, Example 105): 3500 nM
- MIC E. Coli. ([4]; Example 105): 3-6^b uM
- Kd [5, 7]: 600 nM
- IC50 ([6]; Example 105): 100 nM

Compound: NCC1OC(OC2C(CO)OC(OC3C(O)C(N)CC(N)C3OC3OC(CO)C(O)C(O)C3N)C2OCCNCCc2ccc(-c3ccccc3)cc2)C(N)C(O)C1O (centres unmarked) [Compound 9aa]
- MIC S. Aureus ([2]; Example 106): 5 to 10 µM
- Kd ([3]; Example 106): 3500 nM
- MIC E. Coli. ([4]; Example 106): 20 to 40 µM
- Kd ([5]; Example 106): 900 nM
- IC50 ([6]; Example 106): 1500 nM

Compound: NCC1OC(OC2C(CO)OC(OC3C(O)C(N)CC(N)C3OC3OC(CO)C(O)C(O)C3N)C2OCCNCCC2CC3CCC2C3)C(N)C(O)C1O (centres unmarked) [Compound 9ab]
- MIC S. Aureus ([2]; Example 107): 5 to 10 µM
- MIC E. Coli. ([4]; Example 107): >10 µM

Compound: NCC1OC(OC2C(CO)OC(OC3C(O)C(N)CC(N)C3OC3OC(CO)C(O)C(O)C3N)C2OCCNC2CCCc3ccccc32)C(N)C(O)C1O (centres unmarked) [Compound 9ac]
- MIC S. Aureus ([2]; Example 107): 1.3 to 2.5 µM
- MIC E. Coli. ([4]; Example 107): >10 µM

Compound: NCC1OC(OC2C(CO)OC(OC3C(O)C(N)CC(N)C3OC3OC(CO)C(O)C(O)C3N)C2OCCNCCc2cc(C(F)(F)F)cc(C(F)(F)F)c2)C(N)C(O)C1O (centres unmarked) [Compound 9af]
- MIC S. Aureus ([2]; Example 107): 2.5-5^ uM
- MIC E. Coli. ([4]; Example 107): >10 µM

Compound: NCC1OC(OC2C(CO)OC(OC3C(O)C(N)CC(N)C3OC3OC(CO)C(O)C(O)C3N)C2OCCNCCc2ccc(C(F)(F)F)cc2)C(N)C(O)C1O (centres unmarked) [Compound 9ah]
- MIC S. Aureus ([2]; Example 107): 0.6 to 1.2 µM
- MIC E. Coli. ([4]; Example 107): 5 to 10 µM

Compound: NCCCNCCOC1C(OC2C(O)C(N)CC(N)C2OC2OC(CO)C(O)C(O)C2N)OC(CO)C1OC1OC(CN)C(O)C(O)C1N (centres unmarked) [Compound 9c]
- MIC S. Aureus ([2]; Example 105): 3 to 6 µM
- MIC E. Coli. ([4]; Example 105): 25 to 50 µM
- Kd [5, 8]: 400 nM
- IC50 ([6]; Example 105): 300 nM

Compound: NCCNCCOC1C(OC2C(O)C(N)CC(N)C2OC2OC(CO)C(O)C(O)C2N)OC(CO)C1OC1OC(CN)C(O)C(O)C1N (centres unmarked) [Compound 9d]
- MIC S. Aureus ([2]; Example 105): 2 to 3 µM
- MIC E. Coli. ([4]; Example 105): 6 to 12 µM
- Kd [5, 7]: 700 nM
- IC50 ([6]; Example 105): 300 nM

Compound: NCCOC1C(OC2C(O)C(N)CC(N)C2OC2OC(CO)C(O)C(O)C2N)OC(CO)C1OC1OC(CN)C(O)C(O)C1N (centres unmarked) [Compound 9f]
- MIC S. Aureus ([2]; Example 105): 2 to 3 µM
- MIC E. Coli. ([4]; Example 105): 12 to 25 µM
- Kd [5, 7]: 300 nM
- IC50 ([6]; Example 105): 400 nM

Compound: CN(C)CCOC1C(OC2C(O)C(N)CC(N)C2OC2OC(CO)C(O)C(O)C2N)OC(CO)C1OC1OC(CN)C(O)C(O)C1N (centres unmarked) [Compound 9g]
- MIC S. Aureus ([2]; Example 105): 6 to 12 µM
- MIC E. Coli. ([4]; Example 105): 12 to 52 µM
- Kd [5, 8]: 900 nM
- IC50 ([6]; Example 105): 200 nM

Compound: NCCN(CCN)CCOC1C(OC2C(O)C(N)CC(N)C2OC2OC(CO)C(O)C(O)C2N)OC(CO)C1OC1OC(CN)C(O)C(O)C1N (centres unmarked) [Compound 9h]
- MIC S. Aureus ([2]; Example 105): 25 to 50 µM
- MIC E. Coli. ([4]; Example 105): >50 µM
- Kd [5, 7]: 9200 nM
- IC50 ([6]; Example 105): 1000 nM

Compound: NCC1OC(OC2C(CO)OC(OC3C(O)C(N)CC(N)C3OC3OC(CO)C(O)C(O)C3N)C2OCCNc2ccccc2)C(N)C(O)C1O (centres unmarked) [Compound 9l]
- MIC S. Aureus ([2]; Example 105): 6 to 12 µM
- MIC E. Coli. ([4]; Example 105): 50 to 100 µM
- IC50 ([6]; Example 105): 100 nM

Compound: COc1cc(CCNCCOC2C(OC3C(O)C(N)CC(N)C3OC3OC(CO)C(O)C(O)C3N)OC(CO)C2OC2OC(CN)C(O)C(O)C2N)cc(OC)c1 (centres unmarked) [Compound 9y]
- MIC S. Aureus ([2]; Example 106): 5 to 10 µM
- MIC E. Coli. ([4]; Example 106): 10 to 20 µM
- IC50 ([6]; Example 106): 200 nM
